Results published in US20250161235A1, “STRESS TEST AND TREATMENT OF CHRONIC KIDNEY DISEASE” (Renibus Therapeutics, Inc., priority 2020, published 2025).
Entries after “also recorded” stand apart in the source; their conditions may differ.

Columns and labels:
Assay type in all cases: in vivo, humans
NQO1 = experiment: Plasma and urinary NQO1 responses to 90 mg SnPP infusion
Description: Values are means/95% confidence intervals; urine values are after log base 10 conversion; statistics by ANOVA repeated measures, in-group comparisons.
(§1) Baseline and maximal (peak) plasma anti-oxidant protein concentrations, as generated with the highest test dose of SnPP (90 mg). CKD=CKD 3 and CKD 4 groups combined. […] The values presented are means and 95% confidence intervals. Please see the figures for change of values over time and statistics by ANOVA for repeated measures. […] The timing of the peak values were 4 days, 12 hrs, 12 hrs and 4 hrs for HO-1, ferritin, p21, and NQO1, respectively.

p21 = experiment: Plasma p21 concentrations following SnPP injection
Description: There were marked variations in p21 values between participants, as reflected by large standard deviations (SDs: numbers in parentheses that appear at the bottom of the graph). (HVs=healthy volunteers; BL=baseline).
as §1

[1] = Urine biomarkers of kidney injury after administration of 90 mg tin protoporphyrin
HO-1 = experiment: Plasma HO-1 levels following SnPP injection
Description: Plasma HO-1 levels were measured at baseline and from 1-4 days following 9, 27, or 90 mg SnPP injection. Time and dose dependent increases were observed (mean values/95% confidence intervals depicted).
The plasma HO-1 levels rose following SnPP injection in stage 3 CKD ([…]) and stage 4 CKD ([…]) participants as shown in FIG. 2. Plasma HO-1 levels were measured at baseline and from 1-4 days following 27 mg or 90 mg SnPP injection. […] P<0.001, all in-group comparisons; ANOVA, repeated measures. The mean values/95% confidence intervals are depicted.
as §1

ferritin = experiment: Plasma ferritin levels following SnPP injection
Description: Plasma ferritin levels were measured at baseline and 24+48 hrs following 90 mg SnPP injection in healthy volunteers and in CKD3/CKD4 participants. […] Means/95% confidence intervals are depicted.
as §1

[2] = Estimated glomerular filtration rate after administration of 90 mg tin protoporphyrin; conditions: mean ± 1 SD
[3] = 90 mg SnPP, healthy volunteers and CKD combined

C=Cc1c2[n-]c(c1C)/C=c1\[n-]/c(c(C)c1C=C)=C\c1[n-]c(c(CCC(=O)O)c1C)/C=c1\[n-]c(c(C)c1CCC(=O)O)=C2.[Sn+4] [SnPP, tin protoporphyrin]
timing of the peak plasma value, NQO1 (NQO1; 90 mg SnPP): 4 h | peak plasma NQO1 value vs baseline (NQO1; [3]): significantly higher than baseline values | plasma NQO1 (NQO1; healthy volunteer and CKD participants, 90 mg SnPP injection): acute, near identical increases | urinary NQO1/creatinine levels (NQO1; healthy volunteers and combined CKD participants, 72 hr observation period, 90 mg SnPP): significant, and progressive increases | p21 response, CKD group compared to healthy volunteer group (p21; 90 mg SnPP): significantly blunted p21 response | timing of the peak plasma value, p21 (p21; 90 mg SnPP): 12 h | peak plasma p21 value vs baseline (p21; [3]): significantly higher than baseline values | plasma p21 fold increase over baseline (mean) (p21; CKD group (combined)): 0.51 | plasma p21 (p21; healthy volunteer and CKD participants, 12 and 24 hrs post SnPP injection): plasma p21 increases | plasma p21 fold increase over baseline (mean) (p21; healthy volunteer group): 2.65 | urine Cystatin C ([1]; CKD 3, Day 1, mean ± 1 SD): 26.8 ± 12.9 ng/mg Cr | urine KIM-1 ([1]; CKD 3, Day 1, mean ± 1 SD): 0.8 ± 0.2 ng/mg Cr | urine NAG ([1]; CKD 3, Day 1, mean ± 1 SD): 5.66 ± 3.44 mU/mg Cr | urine NGAL ([1]; CKD 3, Day 1, mean ± 1 SD): 46.5 ± 35.3 ng/mg Cr | urine Cystatin C ([1]; CKD 3, Day 2, mean ± 1 SD): 32.2 ± 9.8 ng/mg Cr | urine KIM-1 ([1]; CKD 3, Day 2, mean ± 1 SD): 1.5 ± 0.6 ng/mg Cr | urine NAG ([1]; CKD 3, Day 2, mean ± 1 SD): 8.2 ± 3.44 mU/mg Cr | urine NGAL ([1]; CKD 3, Day 2, mean ± 1 SD): 35.8 ± 23.2 ng/mg Cr | urine Cystatin C ([1]; CKD 3, Day 3, mean ± 1 SD): 34.0 ± 9.4 ng/mg Cr | urine KIM-1 ([1]; CKD 3, Day 3, mean ± 1 SD): 1.4 ± 0.6 ng/mg Cr | urine NAG ([1]; CKD 3, Day 3, mean ± 1 SD): 6.5 ± 1.7 mU/mg Cr | urine NGAL ([1]; CKD 3, Day 3, mean ± 1 SD): 49.8 ± 39.7 ng/mg Cr | urine Cystatin C ([1]; CKD 3, Day 4, mean ± 1 SD): 33.2 ± 33.2 ng/mg Cr | urine KIM-1 ([1]; CKD 3, Day 4, mean ± 1 SD): 0.9 ± 0.2 ng/mg Cr | urine NAG ([1]; CKD 3, Day 4, mean ± 1 SD): 5.9 ± 2.1 mU/mg Cr | urine NGAL ([1]; CKD 3, Day 4, mean ± 1 SD): 42.6 ± 51.7 ng/mg Cr | urine Cystatin C ([1]; CKD 4, Day 1, mean ± 1 SD): 332 ± 519 ng/mg Cr | urine KIM-1 ([1]; CKD 4, Day 1, mean ± 1 SD): 0.8 ± 1.0 ng/mg Cr | urine NAG ([1]; CKD 4, Day 1, mean ± 1 SD): 12.5 ± 11.34 mU/mg Cr | urine NGAL ([1]; CKD 4, Day 1, mean ± 1 SD): 58.0 ± 79.1 ng/mg Cr | urine Cystatin C ([1]; CKD 4, Day 2, mean ± 1 SD): 638 ± 965 ng/mg Cr | urine KIM-1 ([1]; CKD 4, Day 2, mean ± 1 SD): 1.2 ± 1.0 ng/mg Cr | urine NAG ([1]; CKD 4, Day 2, mean ± 1 SD): 10.6 ± 7.5 mU/mg Cr | urine NGAL ([1]; CKD 4, Day 2, mean ± 1 SD): 64.8 ± 91.0 ng/mg Cr | urine Cystatin C ([1]; CKD 4, Day 3, mean ± 1 SD): 186 ± 213 ng/mg Cr | urine KIM-1 ([1]; CKD 4, Day 3, mean ± 1 SD): 1.2 ± 1.0 ng/mg Cr | urine NAG ([1]; CKD 4, Day 3, mean ± 1 SD): 10.5 ± 5.6 mU/mg Cr | urine NGAL ([1]; CKD 4, Day 3, mean ± 1 SD): 47.3 ± 60.2 ng/mg Cr | urine Cystatin C ([1]; CKD 4, Day 4, mean ± 1 SD): 207 ± 238 ng/mg Cr | urine KIM-1 ([1]; CKD 4, Day 4, mean ± 1 SD): 1.0 ± 0.8 ng/mg Cr | urine NAG ([1]; CKD 4, Day 4, mean ± 1 SD): 6.2 ± 3.4 mU/mg Cr | urine NGAL ([1]; CKD 4, Day 4, mean ± 1 SD): 48.0 ± 49.5 ng/mg Cr | urine Cystatin C ([1]; HVs, Day 1, mean ± 1 SD): 32.1 ± 15.1 ng/mg Cr | urine KIM-1 ([1]; HVs, Day 1, mean ± 1 SD): 0.7 ± 0.5 ng/mg Cr | urine NGAL ([1]; HVs, Day 1, mean ± 1 SD): 21.1 ± 28.7 ng/mg Cr | urine Cystatin C ([1]; HVs, Day 2, mean ± 1 SD): 34.8 ± 7.2 ng/mg Cr | urine KIM-1 ([1]; HVs, Day 2, mean ± 1 SD): 0.8 ± 0.7 ng/mg Cr | urine NAG ([1]; HVs, Day 2, mean ± 1 SD): 3.16 ± 1.16 mU/mg Cr | urine NGAL ([1]; HVs, Day 2, mean ± 1 SD): 14.8 ± 13.1 ng/mg Cr | urine Cystatin C ([1]; HVs, Day 3, mean ± 1 SD): 39.6 ± 9.4 ng/mg Cr | urine KIM-1 ([1]; HVs, Day 3, mean ± 1 SD): 0.7 ± 0.4 ng/mg Cr | urine NAG ([1]; HVs, Day 3, mean ± 1 SD): 2.51 ± 0.64 mU/mg Cr | urine NGAL ([1]; HVs, Day 3, mean ± 1 SD): 14.0 ± 8.7 ng/mg Cr | urine Cystatin C ([1]; HVs, Day 4, mean ± 1 SD): 40.4 ± 9.3 ng/mg Cr | urine KIM-1 ([1]; HVs, Day 4, mean ± 1 SD): 0.6 ± 0.4 ng/mg Cr | urine NAG ([1]; HVs, Day 4, mean ± 1 SD): 2.66 ± 0.8 mU/mg Cr | urine NGAL ([1]; HVs, Day 4, mean ± 1 SD): 10.2 ± 5.6 ng/mg Cr | timing of the peak plasma value, HO-1 (HO-1; 90 mg SnPP): 4 days | peak plasma HO-1 value vs baseline (HO-1; [3]): significantly higher than baseline values | plasma HO-1 levels (HO-1; healthy volunteers, baseline and 1-4 days following 9, 27, or 90 mg SnPP injection): rise in a dose dependent fashion; also recorded: rose in a dose dependent fashion | plasma HO-1 levels (HO-1; stage 3 CKD and stage 4 CKD participants, 1-4 days following 27 mg or 90 mg SnPP injection): rise and Time and dose dependent HO-1 increases | timing of the peak plasma value, ferritin (ferritin; 90 mg SnPP): 12 h | plasma ferritin increases over baseline, CKD vs healthy volunteer groups (ferritin; 90 mg SnPP injection): comparable | peak plasma ferritin value vs baseline (ferritin; [3]): significantly higher than baseline values | plasma ferritin levels (ferritin; baseline and 24+48 hrs following 90 mg SnPP injection, healthy volunteers and CKD3/CKD4): increase; also recorded: significant plasma ferritin increases | eGFR ([2]; CKD3, Day 2 post SnPP 90 mg): 50 ± 6 ml/min/1.73 m^2 | eGFR ([2]; CKD3, Day 4 post SnPP 90 mg): 47 ± 6 ml/min/1.73 m^2 | eGFR ([2]; CKD4, Day 2 post SnPP 90 mg): 23 ± 5 ml/min/1.73 m^2 | eGFR ([2]; CKD4, Day 4 post SnPP 90 mg): 22 ± 4 ml/min/1.73 m^2 | eGFR ([2]; Healthy Volunteers, Day 2 post SnPP 90 mg): 87 ± 5 ml/min/1.73 m^2 | eGFR ([2]; Healthy Volunteers, Day 4 post SnPP 90 mg): 88 ± 4 ml/min/1.73 m^2
